Results reported in ChEMBL document CHEMBL1201862, “PubChem BioAssay data set” (2004).
Calls of active or inactive are those of the source.

Legend:
[1] = Luminescence Cell-Based Dose Retest to Confirm Inhibitors of Cancer Stem Cells. [Related pubchem assays (depositor defined):AID2717, AID2721]; type: functional; details: Homo sapiens
[2] = molecular target: Neurotensin receptor type 1 (Homo sapiens, UniProt P30989); type: functional;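 further: Image-based confirmatory dose-response assay measuring agonist activity at NTR1; NTR1-expressing U2OS osteosarcoma cells imaged for beta-arrestin GFP spot formation; agonist potency where compounds increase beta-arrestin recruitment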
Nonstructural protein 1 = Nonstructural protein 1 (Influenza A virus, UniProt Q194T2); type: functional, Influenza A virus (A/California/07/2009(H1N1))
[3] = molecular target: T1, Replicative DNA helicase DnaB (Mycobacterium tuberculosis, UniProt P9WMR3); assay: DnaB intein splicing inhibitors, dose response, biochemical, cell-free fluorescence (AID 449749); type: functional
T1 sequence (P9WMR3 whole entry): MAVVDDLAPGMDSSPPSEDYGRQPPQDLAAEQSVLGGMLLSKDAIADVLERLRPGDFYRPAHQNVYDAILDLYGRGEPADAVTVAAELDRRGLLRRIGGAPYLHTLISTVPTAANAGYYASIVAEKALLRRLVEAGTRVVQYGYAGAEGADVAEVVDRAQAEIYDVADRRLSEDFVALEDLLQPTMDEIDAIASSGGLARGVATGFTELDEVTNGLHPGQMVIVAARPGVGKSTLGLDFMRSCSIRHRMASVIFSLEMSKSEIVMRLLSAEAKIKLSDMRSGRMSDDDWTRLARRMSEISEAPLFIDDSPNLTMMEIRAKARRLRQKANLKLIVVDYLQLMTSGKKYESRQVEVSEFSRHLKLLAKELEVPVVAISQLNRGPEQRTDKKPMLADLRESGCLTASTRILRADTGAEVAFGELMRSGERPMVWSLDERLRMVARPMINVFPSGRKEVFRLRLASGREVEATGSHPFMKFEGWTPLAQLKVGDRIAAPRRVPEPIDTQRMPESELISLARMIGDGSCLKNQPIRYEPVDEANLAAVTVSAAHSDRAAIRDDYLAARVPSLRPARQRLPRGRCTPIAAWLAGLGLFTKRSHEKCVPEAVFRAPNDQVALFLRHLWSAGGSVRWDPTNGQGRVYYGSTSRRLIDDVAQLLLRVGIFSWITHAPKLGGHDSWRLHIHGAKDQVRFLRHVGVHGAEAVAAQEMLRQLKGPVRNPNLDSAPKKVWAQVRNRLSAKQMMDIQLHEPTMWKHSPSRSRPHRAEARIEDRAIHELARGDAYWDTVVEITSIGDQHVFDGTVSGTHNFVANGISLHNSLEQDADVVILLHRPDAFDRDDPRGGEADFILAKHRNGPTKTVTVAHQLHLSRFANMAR

Protein RecA = molecular target: T2, Protein RecA (Mycobacterium tuberculosis, UniProt P9WHJ3); assay: Fluorescence Cell-Free Homogeneous Dose Retest to Identify Inhibitors of RecA-Intein Splicing Activity. [Related pubchem assays (depositor defined):AID2097, AID2223, AID489010, AID492950]; type: functional
T2 sequence (P9WHJ3 whole entry): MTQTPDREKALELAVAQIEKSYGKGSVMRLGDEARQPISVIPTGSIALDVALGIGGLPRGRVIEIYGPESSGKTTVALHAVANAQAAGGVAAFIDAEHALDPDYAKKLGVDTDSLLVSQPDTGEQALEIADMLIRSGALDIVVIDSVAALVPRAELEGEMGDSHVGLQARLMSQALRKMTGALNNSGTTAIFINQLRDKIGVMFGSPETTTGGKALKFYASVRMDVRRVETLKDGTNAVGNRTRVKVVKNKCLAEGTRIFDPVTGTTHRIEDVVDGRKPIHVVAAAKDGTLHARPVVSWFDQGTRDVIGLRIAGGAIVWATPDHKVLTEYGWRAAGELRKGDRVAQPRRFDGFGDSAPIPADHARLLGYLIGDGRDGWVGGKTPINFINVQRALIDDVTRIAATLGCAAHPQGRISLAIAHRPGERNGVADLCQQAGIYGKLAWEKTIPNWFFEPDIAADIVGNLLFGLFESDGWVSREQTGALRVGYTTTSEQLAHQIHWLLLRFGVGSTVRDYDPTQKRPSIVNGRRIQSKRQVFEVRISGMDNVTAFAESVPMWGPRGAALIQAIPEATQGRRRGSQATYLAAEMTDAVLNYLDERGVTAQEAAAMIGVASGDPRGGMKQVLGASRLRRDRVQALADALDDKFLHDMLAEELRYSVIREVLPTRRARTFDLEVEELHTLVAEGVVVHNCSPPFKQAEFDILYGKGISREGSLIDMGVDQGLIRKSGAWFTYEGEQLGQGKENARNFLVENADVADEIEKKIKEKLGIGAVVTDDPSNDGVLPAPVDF

[4] = molecular target: Multidrug resistance protein CDR2 (Candida albicans (strain SC5314 / ATCC MYA-2876) (Yeast), UniProt P78595); assay: inhibition of Nile Red efflux via Candida CDR2 – S. cerevisiae AD1-8u, singleplex, Cherry Pick1 hits, dose response (AID 588604); type: functional
Multidrug resistance protein CDR2, sequence (P78595 whole entry): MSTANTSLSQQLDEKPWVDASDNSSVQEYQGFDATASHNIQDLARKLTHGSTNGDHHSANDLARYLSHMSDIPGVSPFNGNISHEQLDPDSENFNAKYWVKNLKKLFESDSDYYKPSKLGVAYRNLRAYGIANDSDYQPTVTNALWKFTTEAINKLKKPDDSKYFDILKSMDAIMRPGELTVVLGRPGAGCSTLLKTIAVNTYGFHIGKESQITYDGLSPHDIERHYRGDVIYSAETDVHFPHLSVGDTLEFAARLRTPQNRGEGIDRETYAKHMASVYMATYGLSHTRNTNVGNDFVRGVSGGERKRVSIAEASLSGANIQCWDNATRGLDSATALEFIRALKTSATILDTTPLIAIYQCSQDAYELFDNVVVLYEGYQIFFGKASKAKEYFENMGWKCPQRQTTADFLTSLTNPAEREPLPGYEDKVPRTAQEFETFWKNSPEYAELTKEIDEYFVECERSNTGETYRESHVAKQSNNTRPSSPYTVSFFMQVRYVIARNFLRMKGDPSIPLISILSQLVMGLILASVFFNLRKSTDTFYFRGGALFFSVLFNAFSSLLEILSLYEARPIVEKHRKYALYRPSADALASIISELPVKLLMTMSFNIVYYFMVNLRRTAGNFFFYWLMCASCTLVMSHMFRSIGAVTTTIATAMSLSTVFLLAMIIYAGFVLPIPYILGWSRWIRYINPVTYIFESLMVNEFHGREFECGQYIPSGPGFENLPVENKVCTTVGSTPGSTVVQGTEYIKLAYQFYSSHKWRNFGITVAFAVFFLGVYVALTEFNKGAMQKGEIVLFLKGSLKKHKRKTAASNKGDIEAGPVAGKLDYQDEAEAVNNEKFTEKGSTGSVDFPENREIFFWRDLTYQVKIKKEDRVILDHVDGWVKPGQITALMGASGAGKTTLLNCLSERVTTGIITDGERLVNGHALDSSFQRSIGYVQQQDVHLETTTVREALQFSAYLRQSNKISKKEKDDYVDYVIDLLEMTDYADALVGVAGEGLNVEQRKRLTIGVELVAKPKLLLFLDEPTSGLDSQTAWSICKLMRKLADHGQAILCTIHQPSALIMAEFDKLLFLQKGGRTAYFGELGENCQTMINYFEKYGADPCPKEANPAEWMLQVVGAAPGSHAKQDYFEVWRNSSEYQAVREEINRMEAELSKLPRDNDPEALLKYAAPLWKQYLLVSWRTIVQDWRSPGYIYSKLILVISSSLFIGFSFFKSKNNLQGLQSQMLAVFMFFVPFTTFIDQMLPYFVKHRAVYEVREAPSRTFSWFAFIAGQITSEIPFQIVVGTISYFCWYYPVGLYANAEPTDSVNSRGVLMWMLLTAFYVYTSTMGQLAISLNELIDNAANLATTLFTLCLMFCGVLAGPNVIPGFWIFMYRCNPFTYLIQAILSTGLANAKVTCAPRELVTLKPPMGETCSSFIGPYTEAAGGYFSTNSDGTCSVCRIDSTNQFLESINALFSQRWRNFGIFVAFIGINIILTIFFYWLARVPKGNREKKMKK

Neurotensin receptor type 1, sequence (P30989 whole entry): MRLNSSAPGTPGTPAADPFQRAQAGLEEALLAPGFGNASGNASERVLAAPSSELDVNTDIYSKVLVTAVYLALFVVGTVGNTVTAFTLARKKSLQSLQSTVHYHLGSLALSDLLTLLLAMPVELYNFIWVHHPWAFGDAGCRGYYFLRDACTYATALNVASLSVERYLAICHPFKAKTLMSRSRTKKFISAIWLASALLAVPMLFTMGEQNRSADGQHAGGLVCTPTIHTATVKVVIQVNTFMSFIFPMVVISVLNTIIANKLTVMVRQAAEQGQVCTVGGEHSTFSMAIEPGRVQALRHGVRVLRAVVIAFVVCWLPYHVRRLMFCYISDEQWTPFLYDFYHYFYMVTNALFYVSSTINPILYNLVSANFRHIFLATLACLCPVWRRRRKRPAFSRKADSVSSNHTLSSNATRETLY
Nonstructural protein 1, sequence (Q194T2 whole entry): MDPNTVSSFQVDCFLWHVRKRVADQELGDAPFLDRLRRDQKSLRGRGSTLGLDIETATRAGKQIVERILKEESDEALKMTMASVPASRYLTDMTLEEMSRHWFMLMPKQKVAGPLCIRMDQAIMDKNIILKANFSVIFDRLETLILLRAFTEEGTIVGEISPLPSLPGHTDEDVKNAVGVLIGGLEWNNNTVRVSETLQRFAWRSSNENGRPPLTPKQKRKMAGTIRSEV

CCCCCc1cc(=O)oc2c(C(CCN3CCCC(C)C3)c3ccc(N(C)C)cc3)c(OC)cc(OC)c12 (stereo unspecified)
active: AC50 [1] 5.3 µM | EC50 [2] 17.7 µM | IC50 (Nonstructural protein 1) 5.48 µM | AC50 [3] 8.48 µM | EC50 (Protein RecA) 8.08 µM | EC50 [4] 25.4 µM
